Test results: patent US6835382B2, “Ii peptide therapeutics to enhance antigen presentation” (University of Massachusetts, priority 1996, dated 2004)
Non-standard residues stand in square brackets, D forms with d. Cit = NC(=O)NCCC[C@H](N)C(=O)O; Orn = NCCC[C@H](N)C(=O)O

Assays:
[1] = system: murine E^k MHC class II allele; test: simultaneous assay, E^k allele (CH27 APC, TPc9.1 T hybridoma, THMCC82-103 or PGCC81-104); format: cell-based; conditions: for Times Baseline Response, Ek: Table 3, values reduced relative to E^d by a factor of 10
Procedure: (§1) Examples 1-4 (Tables 1-18) will be briefly considered in order to establish the concept of tolerance discussed above. These examples describe experimental results observed in the so-called “simultaneous” assay. In the simultaneous assay four principle components are cultured together for a 24 hour period. The components of this culture, which are added simultaneously, are: (a) an antigenic peptide characterized by the ability to bind specifically into the antigenic peptide binding groove of an MHC class II molecule, (b) mitomycin C-treated, MHC class II-positive antigen presenting cells (APC) bearing the MHC class II allele required for binding of the specific antigenic peptide, and presentation of the specific antigenic peptide to the antigenic peptide-specific T cell hybridoma, (c) an effector compound of the present invention, and (d) an MHC class II allele-restricted T cell hybridoma specific for the antigenic peptide and the MHC class II allele restricting its presentation. Following incubation of this primary culture, an aliquot of its supernatant is transferred into a second culture well for incubation with an interleukin-dependent lymphoblastoid cell line. The degree of stimulation of that second, indicator cell by the interleukins which had been released from the activated T cell hybridoma in the primary culture is measured by quantitating tritiated thymidine deoxyribose {[^3H]TdR} uptake into the DNA of the HT-2 indicator cells of that second culture.
(§2) In the “simultaneous assay” the four components of the assay are cultured together for a 24 h period. The components of this primary culture, added at the same time or simultaneously, are: (a) the antigenic peptide, (b) mitomycin C-treated, MHC class II-positive antigen presenting cells (APC) with the MHC class II allele required for binding of the specific antigenic peptide and its presentation to the antigenic peptide-specific T cell hybridoma, (c) an AE101 series effector peptide, and (d) MHC class II allele-restricted T cell hybridoma specific for the antigenic peptide and the MHC class II allele restricting its presentation. At the end of the incubation of this primary culture, an aliquot of its supernatant is transferred into a second culture well for incubation with an interleukin-dependent lymphoblastoid cell line. The degree of stimulation of that second, indicator cell by the interleukins which had been released from the activated T cell hybridoma in the primary culture is measured by quantitating tritiated thymidine deoxyribose {[^3H]TdR} uptake into the DNA of the HT-2 indicator cells of that second culture.
(§3) For these various assays, the following antigenic peptides were used: HEL11-25, hen egg lysozyme 11-25, AMKRHGLDNYRGYSL(A^d) (SEQ ID NO:5); HEL46-61, hen egg lysozyme 46-61, NTDGSTDYGILQINSR(Ak) (SEQ ID NO:6); HEL106-116, hen egg lysozyme 106-116, NAWVAWRNRCK (E^d) (SEQ ID NO:7); PGCC81-104, pigeon cytochrome c 81-104, […] (Ek) (SEQ ID NO:8), and THMCC82-103, tobacco hornworm moth cytochrome c 82-103, […] (Ek) (SEQ ID NO:9). AE101 series peptides were obtained from commercial sources. In general, the purity and composition of each peptide was confirmed by HPLC separation and mass spectrometry. The native protein antigens were HEL, hen egg lysozyme, and PGCC, pigeon cytochrome C. They were obtained from commercial sources.
(§4) For the experiments of these Examples, several T cell hybridomas, which are specific for certain antigenic peptides, were used. The TPc9.1 T hybridoma is specific for pigeon cytochrome C 81-104 peptide presented on the murine class II MHC allele E^k. The TPc9.1 hybridoma responds heteroclitically to tobacco hornworm moth cytochrome c 82-103 on E^k. The 3A9 T hybridoma is specific for hen egg lysozyme 46-61 on A^k. The 9.30.B2 hybridoma is specific for hen egg lysozyme 11-25 on A^d, and the G28.C9 hybridoma is specific for hen egg lysozyme 106-116 on E^d. […]

[2] = molecular target: T1, murine E^d MHC class II allele (Mus musculus, UniProt P01904+P01915); test: simultaneous assay, E^d allele (A20 APC, G28.C9 T hybridoma, HEL106-116; HT-2 [3H]TdR readout); format: cell-based; design: The A20 and CH27 B cell lymphoma lines express H-2^d and H-2^k alleles, respectively; endogenous in cells; host or cells: A20 B cell lymphoma (mitomycin C-treated or paraformaldehyde-fixed); conditions: for Times Baseline Response, Ed: Table 3, AE peptide 64 μM; for activity in simultaneous assay on E^d and E^k, in words: Tables 12 and 18
T1 sequence (P01904 26-255): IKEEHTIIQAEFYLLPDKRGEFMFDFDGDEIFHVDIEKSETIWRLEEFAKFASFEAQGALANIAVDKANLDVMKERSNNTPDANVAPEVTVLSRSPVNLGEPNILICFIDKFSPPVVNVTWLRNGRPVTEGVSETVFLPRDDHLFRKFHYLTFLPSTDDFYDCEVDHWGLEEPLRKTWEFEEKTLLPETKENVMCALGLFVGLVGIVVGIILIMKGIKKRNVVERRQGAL
T1 sequence (P01915 27-264 limits assumed): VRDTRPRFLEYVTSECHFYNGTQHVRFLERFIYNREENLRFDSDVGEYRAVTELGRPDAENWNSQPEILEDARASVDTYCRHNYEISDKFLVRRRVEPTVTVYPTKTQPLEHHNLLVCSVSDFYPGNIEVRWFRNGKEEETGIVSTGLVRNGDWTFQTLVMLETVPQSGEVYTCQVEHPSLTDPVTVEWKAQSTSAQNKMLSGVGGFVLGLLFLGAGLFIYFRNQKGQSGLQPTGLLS
Procedure: as §1, §2, §3, §4

HLA-DR1 molecules = test: release of biotin-labeled hMBP(90-102) from HLA-DR1 without unlabeled antigenic peptide (assay I); format: binding, human; conditions: Table 36; AE101 series compound 64 μM; fraction of o.d. of positive control (PBS only = 1.0; negative control = 0.0)
[3] = Table 1, AE peptide 16 μM (second value), 0.075 μM THMCC82-103, supernatant 1:2
[4] = Table 1, AE peptide 64 μM (first value), 0.075 μM THMCC82-103, supernatant 1:2
[5] = Table 1, AE peptide 16 μM (second value), 0.4 μM HEL106-116, supernatant 1:4
[6] = Table 1, AE peptide 64 μM (first value), 0.4 μM HEL106-116, supernatant 1:4
[7] = AE peptide 64 μM, supernatant 1:4
[8] = Table 12, AE peptide 1 μM (fourth value), supernatant 1:4
[9] = Table 12, AE peptide 4 μM (third value), supernatant 1:4
[10] = Table 12, AE peptide 16 μM (second value), supernatant 1:4
[11] = Table 12, AE peptide 64 μM (first value), supernatant 1:4
[12] = Table 12, AE peptide 1 μM (fourth value), supernatant 1:2
[13] = Table 12, AE peptide 4 μM (third value), supernatant 1:2
[14] = Table 12, AE peptide 16 μM (second value), supernatant 1:2
[15] = Table 12, AE peptide 64 μM (first value), supernatant 1:2

Ac-YRMKLPKS-NH2 [AE112]
Times Baseline Response, E^k [1, 3]: 3.2 | Times Baseline Response, E^k [1, 4]: 15.3 | Times Baseline Response, E^d [2, 5]: 26.2 | Times Baseline Response, E^d [2, 6]: 42.8

Ac-YRMKLPKSA-NH2 [AE111]
Times Baseline Response, E^k [1, 3]: 2.0 | Times Baseline Response, E^k [1, 4]: 7.2 | Times Baseline Response, E^d [2, 5]: 18.8 | Times Baseline Response, E^d [2, 6]: 39.2

Ac-YRMKLPKSAA-NH2 [AE128]
Times Baseline Response, E^k ([1]; Table 10, AE peptide 64 μM, supernatant 1:2 (first value)): 51.9 | Times Baseline Response, E^k ([1]; Table 10, AE peptide 64 μM, supernatant 1:4 (second value)): 58.6 | Times Baseline Response, E^d ([2]; Table 10, AE peptide 16 μM (second value), supernatant 1:2): 29.5 | Times Baseline Response, E^d ([2]; Table 10, AE peptide 64 μM (first value), supernatant 1:2): 33.0

Ac-[Cit]RMKLPK-NH2 [AE181]
Times Baseline Response, Ek [1, 7]: 11.5 | Times Baseline Response, Ed ([2]; supernatant 1:4): 9.0

Ac-[Orn]RMKLPK-NH2 [AE180]
Times Baseline Response, Ek [1, 7]: 10.8 | Times Baseline Response, Ed ([2]; supernatant 1:4): 12.6

Ac-kplkmrl-NH2 [AE171]
Times Baseline Response, E^k [1, 8]: 1.9 | Times Baseline Response, E^k [1, 9]: 1.4 | Times Baseline Response, E^k [1, 10]: 2.0 | Times Baseline Response, E^k [1, 11]: 3.6 | Times Baseline Response, E^d [2, 12]: 1.4 | Times Baseline Response, E^d [2, 13]: 1.4 | Times Baseline Response, E^d [2, 14]: 1.5 | Times Baseline Response, E^d [2, 15]: 1.3 | activity in simultaneous assay on E^d and E^k, in words [2]: inactive

Ac-lrmklpk-NH2 [AE170]
Times Baseline Response, E^k [1, 8]: 1.7 | Times Baseline Response, E^k [1, 9]: 2.1 | Times Baseline Response, E^k [1, 10]: 2.4 | Times Baseline Response, E^k [1, 11]: 2.8 | Times Baseline Response, E^d [2, 12]: 1.3 | Times Baseline Response, E^d [2, 13]: 1.3 | Times Baseline Response, E^d [2, 14]: 1.2 | Times Baseline Response, E^d [2, 15]: 1.1 | activity in simultaneous assay on E^d and E^k, in words [2]: inactive

KLPKSAKPVSQMR [AE103]
Times Baseline Response, E^k [1, 3]: 0.7, 0.7 | Times Baseline Response, E^k [1, 4]: 0.7, 0.7 | Relative Release (HLA-DR1 molecules): 0.01 | Times Baseline Response, E^d [2, 5]: 1.3 | Times Baseline Response, E^d [2, 6]: 3.4

PKSAKPVSQMR [AE104]
Times Baseline Response, E^k [1, 3]: 1.1 | Times Baseline Response, E^k [1, 4]: 0.8 | Relative Release (HLA-DR1 molecules): 0.02 | Times Baseline Response, E^d [2, 5]: 0.9 | Times Baseline Response, E^d [2, 6]: 2.6
